Results on 13 molecules are retold here after patent US10786508B2, “Substituted imidazo[1,5-A]-pyrimidines and their use in the treatment of medical disorders” (Lysosomal Therapeutics Inc., priority 2014, dated 2020).

Values after ≈ are worked out from the molar mass of the structure shown.

Series [1] has as its target T1, glucocerebrosidase (Gcase) (Homo sapiens, UniProt P04062).
T1 construct: micellar solution containing 10 nM GCase and 100 nM saposin C
T1 sequence (P04062 40-536): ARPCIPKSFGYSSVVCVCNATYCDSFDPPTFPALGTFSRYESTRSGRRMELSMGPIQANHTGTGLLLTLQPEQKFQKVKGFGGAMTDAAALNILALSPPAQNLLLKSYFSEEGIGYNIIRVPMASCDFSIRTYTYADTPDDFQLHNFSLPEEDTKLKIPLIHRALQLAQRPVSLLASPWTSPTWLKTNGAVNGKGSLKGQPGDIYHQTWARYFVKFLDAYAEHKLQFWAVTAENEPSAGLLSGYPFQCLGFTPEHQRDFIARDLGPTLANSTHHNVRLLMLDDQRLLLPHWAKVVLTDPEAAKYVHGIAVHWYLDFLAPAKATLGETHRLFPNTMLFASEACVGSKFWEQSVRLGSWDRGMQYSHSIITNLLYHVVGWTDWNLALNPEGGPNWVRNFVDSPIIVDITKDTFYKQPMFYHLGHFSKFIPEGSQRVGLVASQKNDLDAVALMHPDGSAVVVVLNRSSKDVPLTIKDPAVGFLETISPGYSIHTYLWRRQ
Description: Glucocerebrosidase (Gcase) activation assay, 4-methylumbelliferyl-beta-D-glucopyranoside substrate, with saposin C. Type of series: biochemical. The following applies: 10 nM GCase, 100 nM saposin C, pH 4.7; for activation at 0.1 µM: 0.1 μM test compound, read-out: Percent Gease Activation 0.1 μM Test Compound; for activation at 1 µM: 1 μM test compound, read-out: Percent Gease Activation 1 μM Test Compound. As for the experimental part:
The ability of exemplary compounds to activate glucocerebrosidase (Gcase) was measured.
A 484 μL aliquot of a 1.0 mg/mL solution of phosphatidylserine (PS) (Sigma P7769) in chloroform was evaporated under a stream of nitrogen for 1 hour. The lipid film was dissolved over 4 minutes of vigorous vortexing in 40 mL of 176 mM K2HPO4/50 mM citric acid (pH 4.7) containing 7.5 μL of triton X-100, resulting in a mixed micellar preparation with a composition of 0.32 mM triton and 0.37 mol % PS. 4-Methylumbelliferyl-beta-D-glucopyranoside (ACROS-337025000) was dissolved in the micellar solution to a final concentration of 2 mM for use as the reaction substrate.
Test compounds were diluted to the desired concentrations with dimethylsulfoxide (DMSO) from 10 mM stocks, and 0.41 μL of the DMSO compound mixture was added to 100 μL of micellar solution containing 10 nM GCase and 100 nM saposin C (Enzo ALX-201-262-C050). Pre-incubation was allowed to occur for 30 minutes at room temperature, after which the reaction was initiated by combining 25 μL of substrate solution with 25 μL of compound/GCase/saposin mixture. The reaction proceeded for 15 minutes at room temperature and was stopped by adding 150 μL of 1M glycine, pH 12.5. The endpoint of the reaction was monitored by measuring fluorescence intensity (excitation: 365 nm; emission: 440 nm) on a SpectraMax i3 instrument (Molecular Devices). Test compounds were screened at 1.0 and 0.1 μM final concentration, and subsequent 8-point dose response curves were obtained using 3-fold dilutions from a maximum final concentration of 5 μM.
For experiments in which the test compound was used at a concentration of 1.0 μM, the symbol “+” indicates less than 30% Gcase activation; the symbol “++” indicates Gcase activation in the range of 30% up to 60%; and the symbol “+++” indicates Gcase activation greater than 60%. For experiments in which the test compound was used at a concentration of 0.1 μM, the symbol “*” indicates less than 10% Gcase activation; the symbol “**” indicates Gcase activation in the range of 10% up to 20%; and the symbol “***” indicates greater than 20% Gcase activation.

Series [2] in a line: Compound solubility in water. In kind it is physicochemical.

In general, solubility refers to how much of the substance goes into solution per volume. A lower solubility goes with little dissolved substance.

For the molecule `CCCOc1cccc(C(C)(C)NC(=O)c2ncn3c(COC)cc(C4CC4)nc23)c1` [III-51], in series [1], the activation at 0.1 µM is > 20% and the activation at 1 µM is > 60%. Also, the solubility in series [2] was 10.5 µg/mL (≈ 24.9 µM).

Consider `Cc1cc(C)n2cnc(C(=O)NC3CCc4ccccc43)c2n1` (stereo not drawn) [III-68], for which, in series [1], the activation at 0.1 µM was < 10% and the activation at 1 µM was < 30%. The same molecule came in with a solubility in series [2] of 21 µg/mL (≈ 68.5 µM).

As to `CCCCO[C@H]1[C@@H]2CC[C@H]1C[C@@H](NC(=O)c1ncn3c(C)cc(C)nc13)C2` [III-85], in series [1], the activation at 0.1 µM is < 10% and the activation at 1 µM was > 60%. This molecule also returned a solubility in series [2] of 13.1 µg/mL (≈ 35.4 µM).

Consider `Cc1cc(C)n2cnc(C(=O)N[C@H]3CC[C@H](OC4CCC(C)(C)CC4)CC3)c2n1` [III-46], for which, in series [1], the activation at 0.1 µM was in the range of 10 to 20% and the activation at 1 µM is > 60%. The same molecule had a solubility in series [2] of 4.9 µg/mL (≈ 12.3 µM).

For `Cc1cc(C)n2cnc(C(=O)Nc3ccc4nc(C)oc4c3)c2n1` [III-15], in series [1], the activation at 0.1 µM was < 10% and the activation at 1 µM was < 30%. The solubility in series [2] stood at 3 µg/mL (≈ 9.34 µM).

For the molecule `Cc1cc(C(C)C)n2cnc(C(=O)NC3(C)CCOc4c(F)cccc43)c2n1` (stereo not drawn) [III-37], in series [1], the activation at 0.1 µM is < 10% and the activation at 1 µM fell in the range of 30 to 60%. Further, the concentration in solution in series [2] (solubility) came to 28 µg/mL (≈ 73.2 µM).

In the case of `Cc1cc(C)n2cnc(C(=O)Nc3ccc4nc(O)cc(C)c4c3)c2n1` [III-13], in series [1], the activation at 0.1 µM is < 10% and the activation at 1 µM was < 30%. Further, the solubility in series [2] stood at 0.3 µg/mL (≈ 0.864 µM).

For the molecule `Cc1cc(C)n2cnc(C(=O)NC3CCCc4ccccc43)c2n1` (stereo not drawn) [III-71], in series [1], the activation at 0.1 µM is < 10% and the activation at 1 µM lay within 30 to 60%. Further, the concentration in solution in series [2] (solubility) was 70.7 µg/mL (≈ 221 µM).

Take `Cc1cc(C)n2cnc(C(=O)Nc3ccc4oc(-c5ccncc5)nc4c3)c2n1` [III-19]: in series [1], the activation at 0.1 µM was < 10% and the activation at 1 µM lay within 30 to 60%. In series [2], this molecule came in with a solubility of 0.3 µg/mL (≈ 0.78 µM).

As for `Cc1cc(C)n2cnc(C(=O)Nc3ccc4c(c3)CC(=O)N4)c2n1` [III-10], in series [1], the activation at 0.1 µM was < 10% and the activation at 1 µM is < 30%. The same molecule showed a solubility in series [2] of 6.4 µg/mL (≈ 19.9 µM).

Consider `CCC(NC(=O)c1ncn2c(C)cc(C)nc12)c1ccc(F)cc1` (stereo not drawn) [III-78], for which, in series [1], the activation at 0.1 µM is < 10% and the activation at 1 µM was in the range of 30 to 60%. The amount in solution in series [2] (solubility) came to 39.5 µg/mL (≈ 121 µM).

Take `Cc1cc(C)n2cnc(C(=O)Nc3ccc4[nH]c(C)cc4c3)c2n1` [III-7]: in series [1], the activation at 0.1 µM is < 10% and the activation at 1 µM was < 30%. The same molecule showed a solubility in series [2] of 0.7 µg/mL (≈ 2.19 µM).

Turning to `COc1cc(NC(=O)c2ncn3c(C)cc(C)nc23)ccc1-c1cnco1` [III-14], in series [1], the activation at 0.1 µM is < 10% and the activation at 1 µM was < 30%. The molecule also registered a solubility in series [2] of 0.5 µg/mL (≈ 1.38 µM).
